Earlier results on one compound are cited in US20040096496A1, “Sustained release pharmaceutical composition of a cephalosporin antibiotic” (Orchid Chemicals & Pharmaceuticals Limited, priority 2002, published 2004).

The conditions of this data set: background statement, species not given.

Turning to `CC=CC1=C(C(=O)O)N2C(=O)[C@@H](NC(=O)[C@H](N)c3ccc(O)cc3)[C@H]2SC1` [Cefprozil], the half-life was 1.17 h.
